Measurements as given in ChEMBL document CHEMBL5463723, “Data for DCP probe BIBO3304” (2023).

Columns and labels:
[1] = biological target: Endothelin-1 receptor (Rattus norvegicus) (UniProt P26684); test: Activity against ETA/R in the Eurofins Panlabs screen (BI) by Radioactive Assay; settings: Compound concentration 10.0 uM
[2] = biological target: Kappa-type opioid receptor (Homo sapiens) (UniProt P41145); test: kappa (KOP) Eurofins-Cerep binding assay; settings: Compound concentration 10.0 uM
[3] = biological target: Neprilysin (Homo sapiens) (UniProt P08473); test: Activity against NEUTRALENDOP in the Eurofins Panlabs screen (BI) by absorption of electromagnetic radiation; settings: Compound concentration 10.0 uM
[4] = biological target: Tyrosine-protein kinase Fyn (Homo sapiens) (UniProt P06241); test: Inhibitor of P59TYRKINFYN in the Eurofins Panlabs screen (BI) by FI - fluorescence intensity; settings: Compound concentration 10.0 uM
[5] = biological target: Neutrophil elastase (Homo sapiens) (UniProt P08246); test: Activity against ELASTASEPMN in the Eurofins Panlabs screen (BI) by absorption of electromagnetic radiation; settings: Compound concentration 30.0 uM
[6] = biological target: Kappa-type opioid receptor (Cavia porcellus) (UniProt P41144); test: Activity against KAPPA/GP in the Eurofins Panlabs screen (BI) by Radioactive Assay; settings: Compound concentration 10.0 uM
[7] = biological target: Calpain-1 catalytic subunit (Homo sapiens) (UniProt P07384); test: Inhibitor of CALPAIN in the Eurofins Panlabs screen (BI) by FI - fluorescence intensity; settings: Compound concentration 10.0 uM
[8] = biological target: 5-hydroxytryptamine receptor 3A (Homo sapiens) (UniProt P46098); test: 5-HT3 Eurofins-Cerep binding assay; set-up: ligand concentration 0.5 nM; settings: Compound concentration 10.0 uM
[9] = biological target: L-type calcium channel (dihydropyridine site), Cav1.2 alpha-1C (Rattus norvegicus, UniProt P22002); test: Inhibitor of CA+/DHPSI/R in the Eurofins Cerep SafetyScreen44 (BI) by Radioactive Assay (Cerep_161); type: protein assay; set-up: scale not given: the % may be the effect or the level left; settings: rat brain, probe [3H](+)PN200-110, compound concentration 10 uM, read-out: % Ctrl
[10] = biological target: Gamma-aminobutyric acid receptor subunit alpha-1 (Rattus norvegicus) (UniProt P62813); test: Agonist activity in the Eurofins Panlabs screen (BI) against GABAA-AGSI/R by Scintillation counting; settings: Compound concentration 10.0 uM
Gamma-aminobutyric acid receptor subunit alpha-1 (Rattus norvegicus), sequence (P62813 whole entry): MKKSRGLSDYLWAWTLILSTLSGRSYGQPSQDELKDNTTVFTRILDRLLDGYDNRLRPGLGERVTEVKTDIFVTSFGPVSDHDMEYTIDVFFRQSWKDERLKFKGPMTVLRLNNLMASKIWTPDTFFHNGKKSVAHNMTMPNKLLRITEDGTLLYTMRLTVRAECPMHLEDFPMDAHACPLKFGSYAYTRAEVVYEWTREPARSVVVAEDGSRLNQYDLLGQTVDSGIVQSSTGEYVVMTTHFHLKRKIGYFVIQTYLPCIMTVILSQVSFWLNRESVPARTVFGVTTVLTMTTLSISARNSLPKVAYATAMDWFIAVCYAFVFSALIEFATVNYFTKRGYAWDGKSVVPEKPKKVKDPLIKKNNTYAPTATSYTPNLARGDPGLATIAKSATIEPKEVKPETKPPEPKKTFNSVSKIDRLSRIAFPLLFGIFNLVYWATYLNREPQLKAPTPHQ

[11] = biological target: Adrenergic receptor alpha-2 (Rattus norvegicus) (UniProt P22086+P19328+P22909); test: Activity against ALPHA2/R in the Eurofins Panlabs screen (BI) by Others; type: protein assay; settings: Compound concentration 10.0 uM
[12] = biological target: Histamine H1 receptor (Homo sapiens) (UniProt P35367); test: H1 Eurofins-Cerep binding assay; set-up: ligand concentration 1 nM; settings: Compound concentration 10.0 uM
[13] = biological target: Glucocorticoid receptor (Homo sapiens) (UniProt P04150); test: GR Eurofins-Cerep binding assay; settings: Compound concentration 10.0 uM
[14] = biological target: Thyrotropin-releasing hormone receptor (Rattus norvegicus) (UniProt Q01717); test: Activity against TRH/R in the Eurofins Panlabs screen (BI) by Radioactive Assay; settings: Compound concentration 10.0 uM
[15] = biological target: Leukotriene C4 synthase (Cavia porcellus) (UniProt A6XA80); test: Inhibitor of LTC4SYN in the Eurofins Panlabs screen (BI) by Radioactive Assay; settings: Compound concentration […] uM
[16] = biological target: Histamine H3 receptor (Rattus norvegicus) (UniProt Q9QYN8); test: Activity against H3/R in the Eurofins Panlabs screen (BI) by […]; settings: Compound concentration 10.0 uM
[17] = biological target: Muscarinic acetylcholine receptor M1 (Rattus norvegicus) (UniProt P08482); test: Activity against M1/R in the Eurofins Panlabs screen (BI) by Radioactive Assay; settings: Compound concentration 10.0 uM
Muscarinic acetylcholine receptor M1 (Rattus norvegicus), sequence (P08482 whole entry): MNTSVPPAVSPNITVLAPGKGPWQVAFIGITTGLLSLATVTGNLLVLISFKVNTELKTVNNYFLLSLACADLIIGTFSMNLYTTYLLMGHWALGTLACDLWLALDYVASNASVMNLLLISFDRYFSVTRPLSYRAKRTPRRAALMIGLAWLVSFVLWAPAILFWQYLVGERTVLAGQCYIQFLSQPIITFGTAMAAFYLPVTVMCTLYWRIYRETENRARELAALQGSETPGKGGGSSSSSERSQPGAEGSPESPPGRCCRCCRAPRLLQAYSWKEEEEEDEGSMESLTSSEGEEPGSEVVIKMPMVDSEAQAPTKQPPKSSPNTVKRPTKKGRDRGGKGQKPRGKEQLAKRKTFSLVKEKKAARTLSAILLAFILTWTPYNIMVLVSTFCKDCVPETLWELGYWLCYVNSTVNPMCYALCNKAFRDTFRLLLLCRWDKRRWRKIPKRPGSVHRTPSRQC

[18] = biological target: Gamma-aminobutyric acid receptor subunit alpha-1 (Rattus norvegicus) (UniProt P62813); test: Activity against GABAACENTR in the Eurofins Panlabs screen (BI) by Radioactive Assay; settings: Compound concentration 10.0 uM
[19] = biological target: Estrogen receptor (Bos taurus) (UniProt P49884); test: Activity against ESTROGEN/BO in the Eurofins Panlabs screen (BI) by Radioactive Assay; settings: Compound concentration 10.0 uM
[20] = biological target: Muscarinic acetylcholine receptor M1 (Homo sapiens) (UniProt P11229); test: M1 Eurofins-Cerep binding assay; set-up: ligand concentration 2 nM; settings: Compound concentration 10.0 uM
Muscarinic acetylcholine receptor M1 (Homo sapiens), sequence (P11229 whole entry): as the sequence (P08482 whole entry) above, with V5A, S254T, S309P, K320R, G337A, V413I counted along it

[21] = biological target: Glutamate NMDA receptor (Rattus norvegicus) (UniProt P35439+Q00959+Q00960+Q00961+Q62645+Q8VHN2+Q9R1M7); test: Inhibitor of NMDA/R in the Eurofins Cerep SafetyScreen44 (BI) by Radioactive Assay (Cerep_66); type: protein-complex assay; settings: Compound concentration 10.0 uM
[22] = biological target: Cannabinoid receptor 1 (Homo sapiens) (UniProt P21554); test: CB1 Eurofins-Cerep binding assay; settings: Compound concentration 10.0 uM
[23] = biological target: Protein kinase C gamma type (Homo sapiens) (UniProt P05129); test: Inhibitor of PKCGAMMA in the Eurofins Panlabs screen (BI) by Radioactive Assay; settings: Compound concentration 10.0 uM
[24] = biological target: Angiotensin-converting enzyme (Homo sapiens) (UniProt P12821); test: Activity against ACE(HU_AMTCH400) in the Eurofins Cerep SafetyScreen44 (BI) by Photometry (Cerep_3441); settings: Compound concentration 10.0 uM
Angiotensin-converting enzyme (Homo sapiens), sequence (P12821 whole entry): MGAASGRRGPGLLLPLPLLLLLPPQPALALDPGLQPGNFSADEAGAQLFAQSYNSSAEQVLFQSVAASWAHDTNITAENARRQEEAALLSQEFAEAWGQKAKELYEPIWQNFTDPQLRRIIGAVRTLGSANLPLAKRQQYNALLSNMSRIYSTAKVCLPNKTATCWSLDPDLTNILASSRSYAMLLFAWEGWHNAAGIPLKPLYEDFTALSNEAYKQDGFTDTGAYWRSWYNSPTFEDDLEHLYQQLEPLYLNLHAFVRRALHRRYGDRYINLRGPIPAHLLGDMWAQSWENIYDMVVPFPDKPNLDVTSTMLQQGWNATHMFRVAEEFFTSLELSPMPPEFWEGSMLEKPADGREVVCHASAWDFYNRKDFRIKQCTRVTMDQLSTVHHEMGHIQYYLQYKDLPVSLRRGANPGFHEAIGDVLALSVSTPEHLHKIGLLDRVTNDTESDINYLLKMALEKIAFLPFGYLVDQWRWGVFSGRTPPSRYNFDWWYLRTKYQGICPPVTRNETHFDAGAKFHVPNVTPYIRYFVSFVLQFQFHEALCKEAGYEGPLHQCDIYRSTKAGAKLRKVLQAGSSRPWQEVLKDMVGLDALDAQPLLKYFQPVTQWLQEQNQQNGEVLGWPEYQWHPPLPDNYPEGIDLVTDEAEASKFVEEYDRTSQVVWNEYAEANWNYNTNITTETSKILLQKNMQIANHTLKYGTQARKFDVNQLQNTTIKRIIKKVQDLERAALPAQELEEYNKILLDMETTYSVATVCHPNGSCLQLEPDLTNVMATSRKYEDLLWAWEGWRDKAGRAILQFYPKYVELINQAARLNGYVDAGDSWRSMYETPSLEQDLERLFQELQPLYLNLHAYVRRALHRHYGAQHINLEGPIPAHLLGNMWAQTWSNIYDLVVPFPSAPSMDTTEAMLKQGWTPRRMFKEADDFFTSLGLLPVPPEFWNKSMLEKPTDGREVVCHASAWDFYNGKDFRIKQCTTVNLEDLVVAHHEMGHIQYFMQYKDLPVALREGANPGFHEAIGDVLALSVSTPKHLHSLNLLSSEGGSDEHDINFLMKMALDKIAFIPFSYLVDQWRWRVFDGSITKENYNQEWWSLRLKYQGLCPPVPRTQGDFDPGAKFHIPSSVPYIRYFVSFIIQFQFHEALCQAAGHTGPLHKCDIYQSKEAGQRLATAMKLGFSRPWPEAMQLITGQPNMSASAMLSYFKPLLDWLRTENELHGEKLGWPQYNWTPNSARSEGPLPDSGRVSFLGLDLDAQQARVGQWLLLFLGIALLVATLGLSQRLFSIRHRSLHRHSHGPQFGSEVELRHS

[25] = biological target: Bombesin receptor subtype-3 (Rattus norvegicus) (UniProt Q8K418); test: Activity against BOMBESIN/R in the Eurofins Panlabs screen (BI) by Radioactive Assay; settings: Compound concentration 10.0 uM
[26] = biological target: 5-hydroxytryptamine receptor 2B (Homo sapiens) (UniProt P41595); test: 5-HT2B Eurofins-Cerep binding assay; settings: Compound concentration 10.0 uM
[27] = biological target: Neuropeptide Y receptor type 2 (Oryctolagus cuniculus) (UniProt G1TSD5); test: Activity against Y2/RB in the Eurofins Panlabs screen (BI) by Radioactive Assay; settings: Compound concentration 10.0 uM
[28] = biological target: Epidermal growth factor receptor (Homo sapiens) (UniProt P00533); test: Inhibitor of EGFRTYRKIN in the Eurofins Panlabs screen (BI) by Fluorimetry; settings: Compound concentration 10.0 uM
Epidermal growth factor receptor (Homo sapiens), sequence (P00533 whole entry): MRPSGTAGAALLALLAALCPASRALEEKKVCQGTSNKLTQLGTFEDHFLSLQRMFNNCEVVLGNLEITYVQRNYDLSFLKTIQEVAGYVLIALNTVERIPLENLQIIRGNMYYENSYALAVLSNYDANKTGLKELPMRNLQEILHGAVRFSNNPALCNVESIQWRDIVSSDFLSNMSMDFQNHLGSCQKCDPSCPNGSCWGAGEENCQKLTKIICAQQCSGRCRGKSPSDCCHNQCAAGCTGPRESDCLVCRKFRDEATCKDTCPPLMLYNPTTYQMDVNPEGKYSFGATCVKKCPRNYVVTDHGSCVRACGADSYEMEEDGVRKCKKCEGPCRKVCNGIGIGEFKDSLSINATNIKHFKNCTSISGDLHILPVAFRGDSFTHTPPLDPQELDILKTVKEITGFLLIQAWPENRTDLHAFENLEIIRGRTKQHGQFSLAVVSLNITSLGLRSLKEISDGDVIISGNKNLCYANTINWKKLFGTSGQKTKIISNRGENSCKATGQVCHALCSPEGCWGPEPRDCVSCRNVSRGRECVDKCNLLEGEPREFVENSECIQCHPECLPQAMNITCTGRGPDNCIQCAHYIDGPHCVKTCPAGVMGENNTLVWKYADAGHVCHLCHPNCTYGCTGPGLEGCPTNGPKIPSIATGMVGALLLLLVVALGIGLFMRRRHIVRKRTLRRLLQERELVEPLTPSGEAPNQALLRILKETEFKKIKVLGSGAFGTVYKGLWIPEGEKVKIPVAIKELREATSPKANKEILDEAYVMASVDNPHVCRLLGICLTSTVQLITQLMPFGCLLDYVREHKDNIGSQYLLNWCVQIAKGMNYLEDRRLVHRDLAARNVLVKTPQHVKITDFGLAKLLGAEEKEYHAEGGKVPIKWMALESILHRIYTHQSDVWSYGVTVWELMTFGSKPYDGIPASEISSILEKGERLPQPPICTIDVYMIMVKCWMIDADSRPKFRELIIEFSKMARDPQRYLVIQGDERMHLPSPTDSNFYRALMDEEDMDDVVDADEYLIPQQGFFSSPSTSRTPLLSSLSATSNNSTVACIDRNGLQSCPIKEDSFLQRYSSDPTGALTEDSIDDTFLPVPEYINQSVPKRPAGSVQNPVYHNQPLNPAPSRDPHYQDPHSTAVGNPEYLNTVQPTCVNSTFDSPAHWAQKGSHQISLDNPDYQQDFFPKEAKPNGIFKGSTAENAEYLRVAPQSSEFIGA

Oryctolagus cuniculus = species: Oryctolagus cuniculus; test: Activity against 5HT3/RB in the Eurofins Panlabs screen (BI) by Radioactive Assay; settings: Compound concentration 10.0 uM
Homo sapiens = species: Homo sapiens; test: Agonist activity in the Eurofins Cerep SafetyScreen44 (BI) against N_NEURO_A4B2 by Radioligand Binding (Cerep_3029); type: protein-complex assay; settings: Compound concentration 10.0 uM
[29] = biological target: Epidermal growth factor receptor (Homo sapiens) (UniProt P00533); test: Activity against EGF/HU in the Eurofins Panlabs screen (BI) by Radioactive Assay; settings: Compound concentration 10.0 uM
[30] = biological target: Adenosine receptor A2a (Homo sapiens) (UniProt P29274); test: A2A Eurofins-Cerep binding assay; set-up: ligand concentration 6 nM; settings: Compound concentration 10.0 uM
Adenosine receptor A2a (Homo sapiens), sequence (P29274 whole entry): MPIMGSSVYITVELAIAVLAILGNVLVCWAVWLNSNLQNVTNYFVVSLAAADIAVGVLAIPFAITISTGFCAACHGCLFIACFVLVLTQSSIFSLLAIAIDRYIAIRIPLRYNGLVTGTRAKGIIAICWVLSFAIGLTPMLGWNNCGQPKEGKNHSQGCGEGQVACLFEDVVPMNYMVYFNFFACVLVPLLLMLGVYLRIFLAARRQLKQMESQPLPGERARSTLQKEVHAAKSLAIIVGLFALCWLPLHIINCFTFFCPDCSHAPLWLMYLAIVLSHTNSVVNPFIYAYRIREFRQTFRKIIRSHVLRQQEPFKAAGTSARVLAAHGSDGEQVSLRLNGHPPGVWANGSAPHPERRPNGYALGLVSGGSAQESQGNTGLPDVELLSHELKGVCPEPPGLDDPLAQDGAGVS

[31] = biological target: LTB4 receptor (Cavia porcellus) (UniProt Q9WTK1); test: Activity against LTB4GP in the Eurofins Panlabs screen (BI) by Radioactive Assay; settings: Compound concentration 10.0 uM
[32] = biological target: Tyrosine-protein kinase Lck (Homo sapiens) (UniProt P06239); test: Inhibitor of P56TYRKINLCK in the Eurofins Panlabs screen (BI) by FI - fluorescence intensity; settings: Compound concentration 10.0 uM
[33] = biological target: Neuronal acetylcholine receptor subunit beta-2 (Rattus norvegicus) (UniProt P12390); test: Activity against NACH/CENT/R in the Eurofins Panlabs screen (BI) by Radioactive Assay; settings: Compound concentration 10.0 uM
Neuronal acetylcholine receptor subunit beta-2 (Rattus norvegicus), sequence (P12390 whole entry): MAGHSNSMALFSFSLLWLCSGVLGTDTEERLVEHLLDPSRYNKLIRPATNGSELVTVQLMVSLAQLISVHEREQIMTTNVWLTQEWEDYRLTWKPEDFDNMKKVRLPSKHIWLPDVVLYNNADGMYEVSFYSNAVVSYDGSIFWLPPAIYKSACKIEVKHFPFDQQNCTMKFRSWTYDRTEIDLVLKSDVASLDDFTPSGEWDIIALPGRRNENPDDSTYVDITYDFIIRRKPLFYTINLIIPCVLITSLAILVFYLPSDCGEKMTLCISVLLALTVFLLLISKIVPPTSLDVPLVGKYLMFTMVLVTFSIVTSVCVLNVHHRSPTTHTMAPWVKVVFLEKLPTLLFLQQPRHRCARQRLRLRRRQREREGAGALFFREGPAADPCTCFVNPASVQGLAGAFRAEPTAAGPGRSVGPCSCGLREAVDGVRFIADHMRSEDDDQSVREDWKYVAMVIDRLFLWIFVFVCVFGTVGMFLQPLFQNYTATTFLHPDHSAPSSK

[34] = biological target: Androgen receptor (Homo sapiens) (UniProt P10275); settings: Compound concentration 10.0 uM
Description: Activity against ANDROGEN/H in the Eurofins Cerep SafetyScreen44 (BI) by Radioactive Assay (Cerep_933)

[35] = biological target: Small conductance calcium-activated potassium channel protein 1 (Rattus norvegicus) (UniProt P70606); test: Activity against K+/SKCA in the Eurofins Panlabs screen (BI) by Radioactive Assay; settings: Compound concentration 10.0 uM
Small conductance calcium-activated potassium channel protein 1 (Rattus norvegicus), sequence (P70606 whole entry): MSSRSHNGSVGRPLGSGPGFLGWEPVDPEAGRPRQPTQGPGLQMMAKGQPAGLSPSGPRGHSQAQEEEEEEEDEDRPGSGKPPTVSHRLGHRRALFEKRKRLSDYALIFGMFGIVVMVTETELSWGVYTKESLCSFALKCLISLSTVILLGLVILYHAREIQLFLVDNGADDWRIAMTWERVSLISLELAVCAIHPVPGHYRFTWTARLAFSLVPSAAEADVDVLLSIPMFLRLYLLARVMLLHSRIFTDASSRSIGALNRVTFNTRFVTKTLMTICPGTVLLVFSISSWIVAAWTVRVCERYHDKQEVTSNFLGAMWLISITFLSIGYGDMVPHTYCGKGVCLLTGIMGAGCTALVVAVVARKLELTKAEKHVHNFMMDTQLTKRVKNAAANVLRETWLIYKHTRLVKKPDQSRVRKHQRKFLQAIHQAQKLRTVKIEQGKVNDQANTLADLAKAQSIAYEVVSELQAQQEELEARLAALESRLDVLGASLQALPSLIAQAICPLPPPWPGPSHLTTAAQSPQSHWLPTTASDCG

[36] = biological target: Protein kinase C alpha type (Homo sapiens) (UniProt P17252); test: Inhibitor of PKCALPHA in the Eurofins Panlabs screen (BI) by Radioactive Assay; settings: Compound concentration 10.0 uM
[37] = biological target: Vasoactive intestinal peptide receptor 1 (Cavia porcellus) (UniProt A0A286XMQ0); test: Activity against VIP1/GP in the Eurofins Panlabs screen (BI) by Radioactive Assay; settings: Compound concentration 10.0 uM
[38] = biological target: D(1B) dopamine receptor (Homo sapiens) (UniProt P21918); test: Activity against D5/HU in the Eurofins Panlabs screen (BI) by Radioactive Assay; settings: Compound concentration 10.0 uM

N=C(N)NCCC[C@@H](NC(=O)C(c1ccccc1)c1ccccc1)C(=O)NCc1ccc(CNC(N)=O)cc1
inactive: residual activity [1] 88% | residual activity [3] 102% | residual activity [4] 84% | residual activity [5] 94% | residual activity [6] 105% | residual activity [7] 108% | residual activity [8] 91% | residual activity [10] 104% | residual activity [11] 96% | residual activity [12] 75% | residual activity [13] 98% | residual activity [14] 84% | residual activity [15] 97% | residual activity [16] 104% | residual activity [17] 73% | residual activity [18] 89% | residual activity [19] 85% | residual activity [20] 89% | residual activity [21] 109% | residual activity [22] 107% | residual activity [23] 92% | residual activity [24] 103% | residual activity [25] 100% | residual activity [26] 57% | residual activity [27] 62% | residual activity [28] 83% | residual activity (Oryctolagus cuniculus) 99% | residual activity (Homo sapiens) 110% | residual activity [29] 94% | residual activity [30] 107% | residual activity [31] 86% | residual activity [32] 97% | residual activity [33] 98% | residual activity [34] 91% | residual activity [35] 119% | residual activity [36] 80% | residual activity [37] 88% | residual activity [38] 94%
70% (not active): activity at 10 µM [9]
active: residual activity [2] 30%
